Experimental data taken from patent publication US10221144B2, “Antibacterial compounds having broad spectrum of activity” (priority 2014, dated 2019).
pIC50: −log10 of the molar value. Where two headings read alike, the source gives them in different places.

How the values were obtained:
Format in all cases: biochemical
E. coli DNA gyrase = biological target: T1, E. coli DNA gyrase (Escherichia coli, UniProt P0AES4+P0AES6); assay: DNA gyrase supercoiling assay (E. coli)
T1 construct: purchased Inspiralis, UK
Protocol: (§1) The above compounds were tested for the inhibition of the enzyme DNA gyrase in a gyrase supercoiling assay and for the inhibition of the enzyme topoisomerase IV in a decatenation assay, in both Gram positive and Gram negative bacteria, according to the following methods.
(§2) Both the assays were carried out according to a set-up method modified from the article to Blanche F, et al. “Differential Behaviors of Staphylococcus aureus and Escherichia coli Type II DNA Topoisomerases”, Antimicrob. Agents Chemother., 1996, Vol. 40, No. 12 p. 2714-2720.
(§3) The compounds were screened at single concentration (200, 100 or 50 μM), in duplicate.
(§4) Reagents from S. aureus and E. coli Gyrase Supercoiling Assay kits (Inspiralis, UK) were used. A master mix with a total volume sufficient for the number of reactions to perform was prepared with the following reagents: 5× assay buffer, relaxed pBR322 substrate (0.5 μg/reaction), RNase-DNase free water. Aliquotes of this mix were dispensed in each tube, then 10× compound stock solutions or vehicle control (DMSO), were added to each reaction tube.
(§5) Reaction was started with E. Coli (2 U/reaction) or S. aureus (1 U/reaction) gyrase enzyme addition.
(§6) A sample added with an equal volume of dilution buffer was used as negative control (without enzyme).
(§7) The reaction tubes were gentle vortexed and incubated 30 minutes at 37° C. Each reaction was stopped by adding 30 μl of Stop Buffer and 30 μl chloroform/isoamyl alcohol (24/1), briefly vortexed for 5-10 seconds and centrifuged at 20000×g for 2 minutes. Samples were loaded onto 1% agarose gel and subjected to electrophoresis for 1 hour at 80V constant voltage in TAE (40 mM Tris-acetate, 2 mM EDTA).
(§8) Data acquisition and analysis. Treatment of relaxed pBR322 with DNA gyrase converted the relaxed topoisomers (DNAs of different linking number) to the supercoiled form of the plasmid, which migrates faster on an agarose gel. An upper band might also be visible, which consists of open-circular (nicked) DNA which is present in the relaxed substrate but co-migrates with some of the relaxed topoisomers.
(§9) Bands were visualized by ethidium bromide staining (dilution 1:20000) for 30 minutes followed by destaining in distilled water for 10 minutes.
(§10) In order to evaluate the compounds activity on the enzyme, the bands of supercoiled DNAs in the gel were photographed by a digital imaging system ImageQuant LAS 4000 (GE Healthcare) according to manufacturer's instructions.
(§11) The fluorescent intensity of each band was analyzed by ImageQuant TL software and it was expressed as volume (volume of the uncalibrated quantity of material in the image feature after subtraction of the background intensity by using rolling ball method).
(§12) Each band intensity was compared, as percentage, to vehicle sample band intensity, which served as positive control, on the same gel.
(§13) Inhibitory activity was expressed as percent of inhibition versus the positive control.
(§14) The supercoiled or decatenated DNA bands obtained as described in Example 1 were analysed as follows.
(§15) Bands were analyzed by gel documentation equipment (Syngene, Cambridge, UK) and quantitated using Syngene Gene Tools software. Raw gel data (fluorescent band volumes) collected from Syngene, GeneTools gel analysis software were converted to a percentage of the 100% control (the fully supercoiled or decatenated DNA band). […] The IC50 data were calculated by using the global curve fit non-linear regression tool by selecting the Single, 2 Parameter fit function from the Exponential Decay equation category.

E. coli Topoisomerase IV = biological target: T2, E. coli Topoisomerase IV (Escherichia coli, UniProt P0AFI2+P20083); assay: Topoisomerase IV decatenation assay (E. coli)
T2 construct: purchased Inspiralis, UK
Protocol: as §1, §2, §3
(§16) S. aureus and E. coli Topoisomerase IV decatenation kits (Inspiralis, UK) were used. A master mix with a total volume sufficient for the number of reactions to perform was prepared with the following reagents: 5× assay buffer (50 mM HEPES-KOH (pH 7.6), 100 mM potassium glutamate, 10 mM magnesium acetate, 10 mM DTT, 1 mM ATP, 50 μg/ml albumin), kDNA substrate (200 ng/reaction), RNase-DNase free water. Aliquots of this mix were dispensed in each tube, then 10× compound stock solutions or vehicle control (DMSO), were added in each reaction tube.
(§17) Reaction was started with Topoisomerase IV enzyme (0.5 U/reaction) addition.
as §6
(§18) The reaction tubes were gentle vortexed and incubated 30 minutes at 37° C. Each reaction was stopped by adding 30 μl of Stop Buffer and 30 μl of chloroform/isoamyl alcohol (24/1), briefly vortexed for 5-10 seconds and centrifuged at 20000×g for 2 minutes. Samples taken from the upper phase were loaded into 1% agarose gel and subjected to electrophoresis for 1 hour at 80V constant voltage in TAE (40 mM Tris-acetate, 2 mM EDTA).
(§19) Data acquisition and analysis. Due to the high molecular mass, kDNA could not enter an agarose gel under normal electrophoresis conditions, but remained in the wells. In the presence of Topo IV topoisomerase mini-circles (2.5 Kb) were released from kDNA by decatenation and were quickly and easily resolved in the gel at relatively high voltages.
(§20) Bands were visualized by ethidium bromide staining (dil 1:20000) for 30 minutes followed by destaining in distilled water for 10 minutes.
(§21) For single concentration screening assay, in order to evaluate the compounds activity on the enzymes, the bands of decatenated DNAs in the gel were photographed by a digital imaging system ImageQuant LAS 4000 (GE Healthcare) according to manufacturer's instructions.
as §11, §12, §13, §14, §15

S. aureus DNA gyrase = biological target: T3, S. aureus DNA gyrase (Staphylococcus aureus, UniProt P0A0K8+P20831); assay: DNA gyrase supercoiling assay (S. aureus)
T3 construct: purchased Inspiralis, UK
Protocol: as §1, §2, §3, §4, §5, §6, §7, §8, §9, §10, §11, §12, §13, §14, §15

[1] = biological target: T4, S. aureus Topoisomerase IV (Staphylococcus aureus, UniProt P0C1S7+P0C1U9); assay: Topoisomerase IV decatenation assay (S. aureus)
T4 construct: purchased Inspiralis, UK
Protocol: as §1, §2, §3, §16, §17, §6, §18, §19, §20, §21, §11, §12, §13, §14, §15

[2] = E. coli, conc. 50 μM, n/a = not active
[3] = E. coli, conc. 50 μM, n/a = not active, read-out: % inhibition Topo IV
[4] = S. aureus, conc. 50 μM, n/a = not active
[5] = S. aureus, conc. 50 μM, n/a = not active, read-out: % inhibition Topo IV
[6] = S. aureus, concentration-response curve, eight half-log concentrations 0.1 to 300 μM, read-out: IC50 Topo IV
[7] = E. coli, conc. 100 μM, n/a = not active
[8] = E. coli, concentration-response curve, eight half-log concentrations 0.1 to 300 μM, read-out: IC50 DNA gyrase
[9] = E. coli, concentration-response curve, eight half-log concentrations 0.1 to 300 μM, read-out: IC50 Topo IV
[10] = S. aureus, conc. 100 μM, n/a = not active
[11] = S. aureus, concentration-response curve, eight half-log concentrations 0.1 to 300 μM, read-out: IC50 DNA gyrase

T1 sequence (P0AES4 whole entry, one chain of several): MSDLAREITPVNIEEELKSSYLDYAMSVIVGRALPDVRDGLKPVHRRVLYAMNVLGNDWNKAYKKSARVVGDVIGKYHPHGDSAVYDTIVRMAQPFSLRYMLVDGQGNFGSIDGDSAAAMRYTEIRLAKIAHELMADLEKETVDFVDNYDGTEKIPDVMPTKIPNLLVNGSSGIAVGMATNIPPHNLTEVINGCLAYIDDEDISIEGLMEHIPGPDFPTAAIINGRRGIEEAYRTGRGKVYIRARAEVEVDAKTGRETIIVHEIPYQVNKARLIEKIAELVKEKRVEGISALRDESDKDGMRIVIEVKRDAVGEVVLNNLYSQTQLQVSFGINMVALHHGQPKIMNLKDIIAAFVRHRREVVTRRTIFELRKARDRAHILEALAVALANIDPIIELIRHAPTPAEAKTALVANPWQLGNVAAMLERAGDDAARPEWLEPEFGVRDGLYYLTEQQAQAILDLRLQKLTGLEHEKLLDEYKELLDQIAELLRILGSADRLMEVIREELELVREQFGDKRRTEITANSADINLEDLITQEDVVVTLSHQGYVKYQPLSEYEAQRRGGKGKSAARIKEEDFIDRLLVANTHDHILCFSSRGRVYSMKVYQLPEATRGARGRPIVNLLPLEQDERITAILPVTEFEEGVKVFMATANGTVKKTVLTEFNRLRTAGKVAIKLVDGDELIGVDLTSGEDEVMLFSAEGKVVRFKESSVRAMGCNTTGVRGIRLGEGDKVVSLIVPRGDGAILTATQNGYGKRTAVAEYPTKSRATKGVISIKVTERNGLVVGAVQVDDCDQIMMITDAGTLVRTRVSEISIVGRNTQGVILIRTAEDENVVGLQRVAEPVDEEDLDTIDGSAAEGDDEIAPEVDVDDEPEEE
T2 sequence (P20083 whole entry): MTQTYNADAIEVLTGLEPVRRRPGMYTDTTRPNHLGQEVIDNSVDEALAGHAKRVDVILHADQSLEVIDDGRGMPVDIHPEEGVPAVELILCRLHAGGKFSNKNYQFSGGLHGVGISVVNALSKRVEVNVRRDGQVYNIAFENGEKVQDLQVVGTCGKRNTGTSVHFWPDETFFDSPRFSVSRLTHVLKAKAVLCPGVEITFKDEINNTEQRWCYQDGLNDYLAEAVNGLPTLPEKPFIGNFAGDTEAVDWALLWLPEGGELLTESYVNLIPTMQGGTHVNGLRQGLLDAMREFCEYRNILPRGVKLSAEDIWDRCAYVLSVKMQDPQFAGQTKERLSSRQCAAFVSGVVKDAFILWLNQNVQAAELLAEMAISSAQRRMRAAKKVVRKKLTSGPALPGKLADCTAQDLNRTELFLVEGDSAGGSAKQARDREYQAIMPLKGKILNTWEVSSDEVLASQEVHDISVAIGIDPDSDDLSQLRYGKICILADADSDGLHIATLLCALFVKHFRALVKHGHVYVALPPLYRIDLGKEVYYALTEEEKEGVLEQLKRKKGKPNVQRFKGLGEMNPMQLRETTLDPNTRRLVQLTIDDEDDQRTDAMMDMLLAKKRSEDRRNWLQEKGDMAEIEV
T2 sequence (P0AFI2 whole entry): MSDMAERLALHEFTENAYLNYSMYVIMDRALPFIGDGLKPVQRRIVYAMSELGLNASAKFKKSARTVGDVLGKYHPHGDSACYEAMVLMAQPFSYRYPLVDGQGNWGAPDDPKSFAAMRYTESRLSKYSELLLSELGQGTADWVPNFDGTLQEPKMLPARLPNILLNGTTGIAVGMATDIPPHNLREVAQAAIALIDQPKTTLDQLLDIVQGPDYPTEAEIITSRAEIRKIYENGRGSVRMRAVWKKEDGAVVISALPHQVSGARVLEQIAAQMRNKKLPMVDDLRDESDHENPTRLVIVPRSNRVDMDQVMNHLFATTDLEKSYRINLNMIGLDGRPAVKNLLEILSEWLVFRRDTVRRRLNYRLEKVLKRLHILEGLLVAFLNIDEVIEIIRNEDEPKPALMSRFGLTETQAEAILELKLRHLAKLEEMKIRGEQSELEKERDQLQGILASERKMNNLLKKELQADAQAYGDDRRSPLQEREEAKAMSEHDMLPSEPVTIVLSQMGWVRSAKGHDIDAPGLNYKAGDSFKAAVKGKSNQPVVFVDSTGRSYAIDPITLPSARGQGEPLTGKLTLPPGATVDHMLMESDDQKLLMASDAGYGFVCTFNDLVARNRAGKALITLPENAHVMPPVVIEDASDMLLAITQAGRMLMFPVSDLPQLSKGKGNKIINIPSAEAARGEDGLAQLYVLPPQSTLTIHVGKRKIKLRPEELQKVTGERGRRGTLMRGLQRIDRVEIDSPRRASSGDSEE
T4 sequence (P0C1S7 whole entry): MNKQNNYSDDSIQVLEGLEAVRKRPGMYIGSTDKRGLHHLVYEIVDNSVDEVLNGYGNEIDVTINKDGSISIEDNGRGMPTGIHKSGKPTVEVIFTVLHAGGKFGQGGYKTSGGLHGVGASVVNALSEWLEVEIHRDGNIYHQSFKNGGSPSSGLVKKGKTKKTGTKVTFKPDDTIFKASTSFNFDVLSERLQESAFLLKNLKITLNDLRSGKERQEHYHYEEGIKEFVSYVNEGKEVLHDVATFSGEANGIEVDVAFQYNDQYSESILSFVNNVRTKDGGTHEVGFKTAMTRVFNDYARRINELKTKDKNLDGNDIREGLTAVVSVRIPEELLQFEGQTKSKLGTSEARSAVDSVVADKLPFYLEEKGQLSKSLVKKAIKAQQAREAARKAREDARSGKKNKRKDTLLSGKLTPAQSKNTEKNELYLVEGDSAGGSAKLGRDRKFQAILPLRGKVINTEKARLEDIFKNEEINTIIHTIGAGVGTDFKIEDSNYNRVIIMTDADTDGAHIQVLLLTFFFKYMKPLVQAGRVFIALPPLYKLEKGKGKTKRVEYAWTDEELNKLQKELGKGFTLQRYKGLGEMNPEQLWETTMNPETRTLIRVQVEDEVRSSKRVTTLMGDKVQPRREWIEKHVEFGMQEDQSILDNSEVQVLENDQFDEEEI
T4 sequence (P0C1U9 whole entry): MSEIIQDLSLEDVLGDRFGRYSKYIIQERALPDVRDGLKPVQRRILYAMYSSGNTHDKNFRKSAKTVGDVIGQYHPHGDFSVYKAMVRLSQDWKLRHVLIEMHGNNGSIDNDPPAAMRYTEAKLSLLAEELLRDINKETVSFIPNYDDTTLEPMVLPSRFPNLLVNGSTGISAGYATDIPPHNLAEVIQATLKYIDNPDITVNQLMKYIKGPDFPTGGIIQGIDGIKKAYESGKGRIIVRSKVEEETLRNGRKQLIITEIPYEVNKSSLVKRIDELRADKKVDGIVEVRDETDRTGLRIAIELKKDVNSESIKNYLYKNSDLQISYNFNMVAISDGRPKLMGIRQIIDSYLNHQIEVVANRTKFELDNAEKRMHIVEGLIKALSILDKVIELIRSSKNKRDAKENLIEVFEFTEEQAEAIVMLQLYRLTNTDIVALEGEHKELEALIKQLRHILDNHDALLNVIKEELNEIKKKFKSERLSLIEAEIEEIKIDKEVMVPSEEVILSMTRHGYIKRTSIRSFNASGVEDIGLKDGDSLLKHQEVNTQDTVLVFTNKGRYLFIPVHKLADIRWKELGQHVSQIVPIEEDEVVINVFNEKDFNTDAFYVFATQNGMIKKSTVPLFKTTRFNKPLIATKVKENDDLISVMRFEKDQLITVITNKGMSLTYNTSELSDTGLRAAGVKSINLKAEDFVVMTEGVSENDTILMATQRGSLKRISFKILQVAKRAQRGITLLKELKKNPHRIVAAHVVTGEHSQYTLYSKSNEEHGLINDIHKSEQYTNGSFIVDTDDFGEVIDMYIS

Compound	pIC50 (E. coli DNA gyrase)	inhibition at 50 µM (E. coli DNA gyrase; [2]) [%]	pIC50 (E. coli Topoisomerase IV)	inhibition at 50 µM (E. coli Topoisomerase IV; [3]) [%]	pIC50 (S. aureus DNA gyrase)	inhibition at 50 µM (S. aureus DNA gyrase; [4]) [%]	inhibition at 50 µM [1, 5] [%]	pIC50 [1, 6]	pIC50 [1]	other results
O=c1nc(NCC(O)CN2CCN(c3nccc4ncc(F)cc34)CC2)c2cc(F)ccc2o1 (centres unmarked) [Compound 162, 6-fluoro-4-({3-[4-(3-fluoro-1,6-naphthyridin-5-yl)piperazin-1-yl]-2-hydroxypropyl}amino)-2H-1,3-benzoxazin-2-one]	5.31	95	6.02	100	6.06	100	100	6.51	–	–
Fc1ccc2ccnc(N3CCN(CCNCc4cc5c(cn4)OCCC5)CC3)c2c1 [Compound 150, N-[(3,4-dihydro-2H-pyrano[2,3-c]pyridin-6-yl)methyl]-2-[4-(7-fluoroisoquinolin-1-yl)piperazin-1-yl]ethan-1-amine]	4.77	50	5.37	50	5.99	100	50	–	5.23	–
O=c1oc2ccc(F)cc2c2cc(CNC3CCN(c4nccc5nccnc45)CC3)[nH]c12 [Compound 196, 8-fluoro-2-({[1-(pyrido[3,4-b]pyrazin-5-yl)piperidin-4-yl]amino}methyl)[1]benzopyrano[3,4-b]pyrrol-4(3H)-one]	6.10	85	5.60	100	6.80	83	–	–	6.41	inhibition at 50 µM ([1]; read-out: % inhibition Topo IV): 89%
O=c1oc2ccccc2c2[nH]c(CNC3CCN(c4nccc5ccc(F)cc45)CC3F)cc12 (centres unmarked) [Compound 172, 2-({[3-fluoro-1-(7-fluoroisoquinolin-1-yl)piperidin-4-yl]amino}methyl)[1]benzopyrano[4,3-b]pyrrol-4(1H)-one]	–	94	–	89	–	64	39	–	–	–
O=c1nc(NCC(O)CN2CCN(c3nccc4ncc(C(F)(F)F)cc34)CC2)c2cc(F)ccc2o1 (centres unmarked) [Compound 163, 6-fluoro-4-[(2-hydroxy-3-{4-[3-(trifluoromethyl)-1,6-naphthyridin-5-yl]piperazin-1-yl}propyl)amino]-2H-1,3-benzoxazin-2-one]	5.36	80	5.00	90	4.08	30	100	5.91	–	–
COc1ccc2cc(F)nc(N3CCN(CC(O)CNc4cc(=O)oc5ccc(F)cc45)CC3)c2c1 (centres unmarked) [Compound 203, 6-fluoro-4-({3-[4-(3-fluoro-7-methoxyisoquinolin-1-yl)piperazin-1-yl]-2-hydroxypropyl}amino)-2H-1-benzopyran-2-one]	–	100	–	100	–	100	–	–	–	inhibition at 50 µM ([1]; read-out: % inhibition Topo IV): 100%
O=c1cc(NCC(O)CN2CCN(c3nccc4ncccc34)CC2)c2cc(F)ccc2o1 (centres unmarked) [Compound 166, 6-fluoro-4-({2-hydroxy-3-[4-(1,6-naphthyridin-5-yl)piperazin-1-yl]propyl}amino)-2H-1-benzopyran-2-one]	6.82	80	6.70	90	5.95	70	–	6.52	–	inhibition at 50 µM ([1]; read-out: % inhibition Topo IV): 97%
7-methyl-1-chloroisoquinoline [Compound 72]	–	–	–	–	–	–	–	4.28	–	% inhibition DNA gyrase (E. coli DNA gyrase; [7]): 98%; pIC50 (E. coli DNA gyrase; [8]): 5.59; % inhibition Topo IV (E. coli Topoisomerase IV; [7]): 91%; pIC50 (E. coli Topoisomerase IV; [9]): 5.42; % inhibition DNA gyrase (S. aureus DNA gyrase; [10]): 97%; pIC50 (S. aureus DNA gyrase; [11]): 5.02; % inhibition Topo IV [1, 10]: 76%
O=c1cc(NCCCN2CCN(c3nccc4ccc(F)cc34)CC2)c2ccccc2o1 [Compound 67, 4-({3-[4-(7-fluoroisoquinolin-1-yl)piperazin-1-yl]propyl}amino)chromen-2-one]	6.10	–	5.77	–	5.55	–	–	–	4.93	inhibition at 100 µM (E. coli DNA gyrase; [7]): 89%; inhibition at 100 µM (E. coli Topoisomerase IV; E. coli, conc. 100 μM, n/a = not active, read-out: % inhibition Topo IV): 100%; inhibition at 100 µM (S. aureus DNA gyrase; [10]): 97%; inhibition at 100 µM ([1]; S. aureus, conc. 100 μM, n/a = not active, read-out: % inhibition Topo IV): 100%
O=c1nc(NCC(O)CN2CCN(c3nc(F)cc4ccc(F)cc34)CC2)c2cc(F)ccc2o1 (centres unmarked) [Compound 149, 4-({3-[4-(3,7-difluoroisoquinolin-1-yl)piperazin-1-yl]-2-hydroxypropyl}amino)-6-fluoro-2H-1,3-benzoxazin-2-one]	7.00	90	6.85	90	7.74	100	100	7.40	–	–
7-methoxy-1-chloroisoquinoline [Compound 88]	–	–	–	–	–	–	–	5.17	–	% inhibition DNA gyrase (E. coli DNA gyrase; [2]): 100%; pIC50 (E. coli DNA gyrase; [8]): 5.49; % inhibition Topo IV (E. coli Topoisomerase IV; [2]): 100%; pIC50 (E. coli Topoisomerase IV; [9]): 6.05; % inhibition DNA gyrase (S. aureus DNA gyrase; [4]): 100%; pIC50 (S. aureus DNA gyrase; [11]): 5.96; % inhibition Topo IV [1, 4]: 88%
O=c1oc2ccccc2c2[nH]c(CNC3CCN(c4nccc5ccc(F)cc45)CC3)c(C(F)(F)F)c12 [Compound 153, 2-({[1-(7-fluoroisoquinolin-1-yl)piperidin-4-yl]amino}methyl)-3-(trifluoromethyl)[1]benzopyrano[4,3-b]pyrrol-4(1H)-one]	5.85	72	5.87	50	6.31	100	61	–	5.64	–
O=c1oc2ccccc2c2[nH]c(CNC3CCN(c4nccc5ccc(F)cc45)CC3O)cc12 (centres unmarked) [Compound 186, 2-({[1-(7-fluoroisoquinolin-1-yl)-3-hydroxypiperidin-4-yl]amino}methyl)[1]benzopyrano[4,3-b]pyrrol-4(1H)-one]	–	70	–	54	–	100	87	–	–	–
